The record followed here is patent publication US20230125425A1, “TRADITIONAL CHINESE MEDICINE EXTRACT COMPOSITION WITH FUNCTION OF REGULATING DEPRESSIVE EMOTION AND PREPARATION METHOD AND TRADITIONAL CHINESE MEDICINE PREPARATION THEREOF” (CHENLAND NUTRITIONALS, INC., priority 2019, published 2023).

What all share (assay type): in vivo
For test [1], the system named is C57BL/6J mice. The experiment in a line: Forced swimming test of mice. Conditions: gavage daily for one month, 3.33 mg/kg, x ± SE, hydrochloride. The procedure:
(§1) The mice were kept in a light, temperature and humidity controlled room with 6 mice per cage, and were allowed to eat and drink ad libitum: temperature 21±2° C. humidity 50±10%, 12 h/12 h light and dark cycle (light on at 20:00, light off at 8:00). All animal experiments were conducted in accordance with the guidelines on experiment animal welfare and use issued by NIH.
(§2) The mice were adapted for one week after their arrival, and then entered the experiment.
(§3) The normal group was given the same volume of purified water by gavage, and the gavage doses of other groups are shown in the table in the Experimental results. The mice were administrated by gavage at a fixed time (9:00) every morning, with a gavage volume of 0.1 mL·10g^−1, for one month. The behavioral test was performed 1 h after the last gavage.
During forced swimming, all animals were put into a plexiglass cylinder containing water with a deep of 20 cm at 23±1° C., individually. After 15 minutes, they were transferred to a dry environment at 30° C. for 30 minutes (pre-experiment). After 24 hours, the mice were put into the plexiglass cylinder again for 5 minutes (formal experiment). During this period, the mice were recorded with a video camera. After each mouse was tested, the water was changed and the cylinder was cleaned. SMART3.0 software was used to record the number of static suspension and the latency of static suspension.

For test [2], the system named is C57BL/6J mice. Kind of test: Tail suspension test of mice. Particulars: gavage daily for one month, 3.33 mg/kg, last 4 min of 6 min, x ± SE, hydrochloride. The procedure: as §1, §2, §3
In the tail suspension test, mice were hung on the tail suspension device using medical tape at a position ⅓ from the tip of the tail, in an upright position with the head being about 30 cm from the ground and facing straight onto a camera, which was used to record the immobility time during the tail suspension test of the mice in each group. The test lasted for 6 minutes, and the last 4 minutes were used to calculate the immobility time during the tail suspension test of mice. Immobility time is defined as the time when the mouse stops struggling and is still in a hanging state.

The subject of test [3] is C57BL/6J mice. The experiment in a line: Open field test of mice. Conditions: open field 6 min, gavage one month, 3.33 mg/kg, x ± SE, hydrochloride. As for the experimental part:
as §1, §2, §3
The test was carried out in an open field box with a length of 50 cm, a width of 50 cm and a depth of 50 cm. The bottom surface of the open field box was equally divided into 9 squares, in which the middle area was the central area, and the remaining areas were the peripheral areas. The bottom and four sides of the open field box were all white. The test was carried out in a quiet and weak red light environment. At the beginning, the mice were placed in the center of the open field box to observe their activities within 6 minutes. The total movement distance, the movement distance in the central area and the number of standing upright of the mice were recorded.

Counter-ions that a name gives are not always drawn.

Turning to `CNCCC(Oc1ccc(C(F)(F)F)cc1)c1ccccc1` (stereo not drawn) [FXT, Fluoxetine hydrochloride], the “Number of static suspension” value with C57BL/6J mice [1] is 54.64 ± 2.704; with C57BL/6J mice [1] (listed as fluoxetine), “significantly less than that of the control group”. Moreover, the “Immobility time during tail suspension” value was 59.62 ± 6.270 s in the test on C57BL/6J mice [2] and “significantly less than that of the control group” in the test on C57BL/6J mice [2] (listed as fluoxetine). Also, the entries for the “Number of standing uprights” value in the test with C57BL/6J mice [3] and in the test with C57BL/6J mice [3] (listed as fluoxetine) were 29.20 ± 2.133 and “no significant change”, respectively. Besides, the Total movement distance with C57BL/6J mice [3] is 18435 ± 950.6; with C57BL/6J mice [3] (listed as fluoxetine), “no significant change”. Besides, the “Movement distance in the central area” value with C57BL/6J mice [3] (listed as fluoxetine) is reported as “no significant change”.
